Assay results: US20100256179A1, “COMBINATION THERAPY FOR PAIN IN PAINFUL DIABETIC NEUROPATHY” (UCB PHARMA GMBH, priority 2004, published 2010)

How the values were obtained:
[1] = system: formalin-induced flinching and licking response of the affected paw; experiment: rat formalin paw test (late phase); format: in vivo
Protocol: Rats were given an intraplantar injection of 5% formalin (50 μl) into the posterior left paw. This treatment induces a recognizable flinching and licking response of the affected paw in control animals. The number of flinches was counted for 15 minutes, beginning 20 minutes after injection of formalin. The time spent licking the affected paw was also recorded.
Male Rj: Wistar (Han) rats, 10 per group, weighing 100-130 g at the beginning of the experiments were studied per group. The test was performed blind.

[2] = system: pain in subjects with diabetic distal sensory polyneuropathy; experiment: Randomized, double-blind placebo controlled trial of lacosamide in painful diabetic neuropathy: efficacy; format: in vivo, human
Protocol: A randomized, double-blind placebo controlled trial to investigate safety and efficacy of lacosamide in painful diabetic neuropathy was conducted.
Baseline data were collected during the last week of a 4-week Run-In Phase to ensure subject eligibility. […] The highest attained dose was maintained for 4 weeks during the Maintenance Phase, after which subjects entered the Taper Phase and were tapered off of study medication for 1 week. The Taper Phase was followed by a 2-week Safety Follow-Up Phase.
Subjects were male or female, age 18 or older. Subjects had clinically diagnosed pain attributed to diabetic distal sensory polyneuropathy for 1-5 years and a diagnosis of diabetes mellitus (Type I or Type II). Subjects had at least moderate pain (mean pain intensity during the Baseline week ≧4 out of 10 on an 11-point Likert scale) which had been stable for 4 weeks prior to randomization. Furthermore, subjects had good or fair diabetic control (glycosylated hemoglobin (HbA1C) <10%), which was optimized (best effort to achieve best control) for at least three months prior to Visit 1. Test product, dose and mode of administration, batch number
After completion of screening assessments, subjects began a 4-week Run-In Phase. […] Following the titration scheme, their dosage was escalated by 100 mg in weekly increments to a maximum dose of 400 mg/day (provided tolerability was satisfactory).
If subjects reached total or sufficient pain relief with lower doses than 400 mg/day, after careful consideration by the investigator, they were allowed to stay on the attained dose level in the Maintenance Phase. If adverse events were intolerable during the Titration Phase or the first week of the Maintenance Phase (only for those subjects reaching the 400 mg/day level), subjects could be down-titrated, once, to the next lowest dose. Subjects were treated at 400 mg/day (or highest dose achieved) for 4 weeks in the Maintenance Phase.
The primary variable was the within-subject change in average daily pain score from the Baseline week to Maintenance Phase, using an 11-point Likert scale (0-10). […]

[3] = Safety and tolerability of lacosamide in the trial; format: in vivo, human
Excerpt: Safety variables evaluated included adverse events, clinical laboratory assessments, electrocardiograms (ECGs), vital sign measurements, and physical and neurological examinations.

[4] = Trough and peak plasma concentrations of unchanged lacosamide in the trial; format: in vivo, human; settings: 400 mg/day, Maintenance Phase
[5] = Example 4, duloxetine 8 mg/kg i.p.
[6] = Example 2, gabapentin 50 mg/kg i.p.
[7] = Example 2, gabapentin 100 mg/kg i.p.
[8] = of 60 subjects in the lacosamide group
[9] = Example 2, lacosamide 20 mg/kg i.p.
[10] = Example 3, lacosamide 10 mg/kg i.p.
[11] = Example 3, lacosamide 20 mg/kg i.p.
[12] = Example 4, lacosamide 10 mg/kg i.p.
[13] = Example 5, lacosamide 10 mg/kg i.p.
[14] = Example 5, lacosamide 20 mg/kg i.p.
[15] = Example 5, lacosamide alone at 10 mg/kg
[16] = Example 5, memantine 4 mg/kg i.p.
[17] = Example 5, memantine 8 mg/kg i.p.
[18] = Example 3, morphine 2 mg/kg i.p.
[19] = Example 3, morphine 4 mg/kg i.p.

## CNCC[C@H](Oc1cccc2ccccc12)c1cccs1 [Duloxetine]
[1]; Example 4, duloxetine 8 mg/kg alone
  effects on number of flinches and time spent licking: no clear effects
[1]; [5]
  Licking time % change (a): compared with vehicle control: −26% (a)
  Licking time (seconds) mean ± SEM: 195.5 ± 45.0 s
  No. of flinches % change (a): compared with vehicle control: −1% (a)
  No. of flinches mean ± SEM: 149.6 ± 27.3

## NCC1(CC(=O)O)CCCCC1 [Gabapentin]
[1]; [6]
  Licking time % change (a): compared with vehicle control: −28% (a)
  Licking time (seconds) mean ± SEM: 161.0 ± 27.3 s
  No. of flinches % change (a): compared with vehicle control: −24% (a)
  No. of flinches mean ± SEM: 97.4 ± 23.8
[1]; [7]
  Licking time % change (a): compared with vehicle control: −60% (a)
  Licking time (seconds) mean ± SEM: 90.0 ± 22.5 s
  No. of flinches % change (a): compared with vehicle control: −31% (a)
  No. of flinches mean ± SEM: 88.1 ± 19.4
[1]; Example 2, gabapentin alone at 50 mg/kg
  decrease in time spent licking: 28%
[1]; Example 2, gabapentin alone at 50 mg/kg, non-significant
  decrease in number of flinches as compared with vehicle controls: 24%
[1]; Example 2, gabapentin alone at 100 mg/kg, non-significant
  decrease in number of flinches as compared with vehicle controls: 31%
[1]; Example 2, gabapentin alone at 100 mg/kg, p<0.05
  decrease in time spent licking: 60%

## COC[C@@H](NC(C)=O)C(=O)NCc1ccccc1 [Lacosamide, (R)-2-acetamido-N-benzyl-3-methoxypropionamide]
[2]; Full Analysis Set (LOCF), oral lacosamide titrated to max 400 mg/day
  reduction in pain from Baseline to the Maintenance Phase (average daily pain score, 11-point Likert scale), LSMean: 3.11 point
[2]; compared with the placebo group, all phases of the trial
  proportion of subjects with a decrease of 2 or more points on the Likert pain scale: larger proportion
[2]; end of Maintenance Phase (Visit 10), lacosamide and placebo
  CGIC and PGIC scores: Statistically significant differences
[2]; lacosamide vs placebo, FAS (LOCF), p=0.0390
  difference in LSMean pain score between the two groups: 0.9
[3]; Baseline to Visit 8, lacosamide group
  HbA1C level, mean change: 0.1%
[3]; lacosamide group
  Body weight change during treatment: -0.5 kg
  subjects who withdrew from the trial due to an AE: 5 subjects
[3]; lacosamide treatment group, abnormal ECG judged unlikely related to study medication
  subjects with a serious adverse event (SAE): one
[3]; lacosamide treatment group, indicating high tolerability
  mean duration of exposure to study medication: 59.6 days
[3]; of 60 lacosamide subjects
  subjects reporting adverse events associated with the central and peripheral nervous system: 38%
[3]; [8]
  subjects who reported at least one treatment-emergent adverse event (TEAE), overall incidence rate: 87%
  subjects who withdrew from the trial due to an AE: 8%
[3]; trial conclusion
  weight gain: did not induce weight gain
[1]; [9]
  Licking time % change (a): compared with vehicle control: −34% (a)
  Licking time (seconds) mean ± SEM: 146.9 ± 23.8 s
  No. of flinches % change (a): compared with vehicle control: −33% (a)
  No. of flinches mean ± SEM: 85.7 ± 14.3
[1]; Example 2, lacosamide alone at 20 mg/kg
  decrease in number of flinches as compared with vehicle controls: 33%
[1]; Example 2, lacosamide alone at 20 mg/kg, p=0.0962
  decrease in time spent licking as compared with vehicle controls: 34%
[1]; [10]
  Licking time % change (a): compared with vehicle control: −28% (a)
  Licking time (seconds) mean ± SEM: 210.1 ± 22.7 s
  No. of flinches % change (a): compared with vehicle control: +22% (a)
  No. of flinches mean ± SEM: 182.7 ± 25.9
[1]; [11]
  Licking time % change (a): compared with vehicle control: −56% (a)
  Licking time (seconds) mean ± SEM: 128.2 ± 28.0 s
  No. of flinches % change (a): compared with vehicle control: −35% (a)
  No. of flinches mean ± SEM: 97.2 ± 16.0
[1]; Example 3, lacosamide alone at 10 mg/kg
  increase in number of flinches as compared with vehicle controls: 22%
[1]; Example 3, lacosamide alone at 10 mg/kg, p<0.05
  decrease in time spent licking: 28%
[1]; Example 3, lacosamide alone at 20 mg/kg, p<0.001
  decrease in time spent licking: 56%
[1]; Example 3, lacosamide alone at 20 mg/kg, p=0.0961
  decrease in number of flinches as compared with vehicle controls: 35%
[1]; Example 4, lacosamide 10 mg/kg alone, p=0.0538
  decrease in time spent licking: 30%
[1]; [12]
  Licking time % change (a): compared with vehicle control: −30% (a)
  Licking time (seconds) mean ± SEM: 185.2 ± 31.7 s
  No. of flinches % change (a): compared with vehicle control: +5% (a)
  No. of flinches mean ± SEM: 158.2 ± 15.6
[1]; [13]
  Licking time % change (a): compared with vehicle control: −4% (a)
  Licking time (seconds) mean ± SEM: 168.5 ± 23.9 s
  No. of flinches % change (a): compared with vehicle control: −31% (a)
  No. of flinches mean ± SEM: 113.9 ± 23.2
[1]; [14]
  Licking time % change (a): compared with vehicle control: −52% (a)
  Licking time (seconds) mean ± SEM: 85.1 ± 19.1 s
  No. of flinches % change (a): compared with vehicle control: −48% (a)
  No. of flinches mean ± SEM: 85.8 ± 14.4
[1]; [15]
  decrease in number of flinches as compared with vehicle controls: 31%
  effect on time spent licking: no clear effects
[1]; Example 5, lacosamide alone at 20 mg/kg, p<0.01
  decrease in time spent licking: 52%
[1]; Example 5, lacosamide alone at 20 mg/kg, p<0.05
  decrease in number of flinches as compared with vehicle controls: 48%
[4]; Visit 9
  mean plasma drug concentration, peak: 11400 ng/mL
  mean plasma drug concentration, trough: 7700 ng/mL
[4]; Visit 10
  mean plasma drug concentration, peak: 9100 ng/mL
  mean plasma drug concentration, trough: 7900 ng/mL

## CC12CC3CC(C)(C1)CC(N)(C3)C2 [Memantine]
[1]; [16]
  Licking time % change (a): compared with vehicle control: +25% (a)
  Licking time (seconds) mean ± SEM: 219.9 ± 21.8 s
  No. of flinches % change (a): compared with vehicle control: −3% (a)
  No. of flinches mean ± SEM: 161.4 ± 26.3
[1]; [17]
  Licking time % change (a): compared with vehicle control: +35% (a)
  Licking time (seconds) mean ± SEM: 237.3 ± 18.9 s
  No. of flinches % change (a): compared with vehicle control: −20% (a)
  No. of flinches mean ± SEM: 132.3 ± 24.6
[1]; Example 5, memantine alone at 4 mg/kg, p=0.0537
  increase in time spent licking: 25%
[1]; Example 5, memantine alone at 8 mg/kg, p<0.05
  increase in time spent licking: 35%
[1]; Example 5, memantine alone at 4 and 8 mg/kg
  number of flinches as compared with vehicle controls: did not clearly affect

## CN1CC[C@]23c4c5ccc(O)c4O[C@H]2[C@@H](O)C=C[C@H]3[C@H]1C5 [Morphine]
[1]; [18]
  Licking time % change (a): compared with vehicle control: −1% (a)
  Licking time (seconds) mean ± SEM: 289.3 ± 30.7 s
  No. of flinches % change (a): compared with vehicle control: −7% (a)
  No. of flinches mean ± SEM: 139.5 ± 25.3
[1]; [19]
  Licking time % change (a): compared with vehicle control: −20% (a)
  Licking time (seconds) mean ± SEM: 234.9 ± 37.3 s
  No. of flinches % change (a): compared with vehicle control: −37% (a)
  No. of flinches mean ± SEM: 94.3 ± 21.1
[1]; Example 3, morphine alone at 2 and 4 mg/kg, effects did not reach statistical significance
  number of flinches and time spent licking as compared with vehicle controls: dose-dependently decreased
